Values joined by “and” are separate entries in the source; they are usually repeats but may differ in a detail not shown here. Equal values may be shown once. “Also recorded” adds a separate entry of the source. In the oligonucleotide strings, read from the 5' end, every base follows the letter of its sugar. An asterisk marks phosphorothioate; unmarked linkages are phosphodiester. Other units and linkages are bracketed, terminal groups are in braces. A string of capitals states the bases alone. m = 2'-O-methyl; r = 2'-OH (RNA); {P} = phosphate

For one data set, the system named is CFTR. The data set is described as follows: DPC block of cAMP-activated whole cell currents in treated Δ508 cells. The format is cell-based, human. To be noted: DPC 500 μM. As for the experimental part:
Whole-cell and excised inside-out patches were obtained to assess cAMP-PKA dependent anion currents in treated Δ508 cells. Currents and command voltages were obtained and driven. respectively, with a Dagan 3900 amplifier using a 1 gigaohm headstage. The excised patch-clamp configuration was carried out as previously described [Reisin et al., (1994) J. Biol. Chem. 269, 20584-20591]. Single channel data were obtained between ±100 mV in symmetrical Cl^−. Data were further analyzed as previously described [Reisin et al., (1994) J. Biol. Chem. 269, 20584-20591]. The pipette and bathing solution contained, in mmol/L, either: NaCl 140, MgCl2 1.0, KCl 5, and N-2-hydroxyethylpiperazine N′-2-ethanesulfonic acid (HEPES) 10, at pH 7.4, or MgCl2 70, HEPES 10, pH 7.4. The bathing solution also contained 1.0 mmol/L CaCl2. Whenever indicated, the patch-pipette was filled up to at least one third of its height with either MgATP or TrisATP (100 mmol/L, pH 7.4 adjusted with N-methyl-glucamine) as previously reported [Reisin et al., (1994) J. Biol. Chem. 269, 20584-20591]. Experiments were conducted at room temperature. The cAMP stimulatory mixture contained 8-Br-cAMP, isobutyl-methyl-xanthine (IBMX) and forskolin. Final concentrations were 500 μmol/L, […], and 10 μmol/L, respectively. The catalytic subunit of PKA was used at a final concentration of 20 μg/ml. […]

Data set [1] deals with Δ508CFTR expressing cells. Kind of data set: Single channel currents in excised inside-out patches (PKA and ATP activation). In kind it is cell-based, mouse. To be noted: treated Δ508 cells. As for the experimental part: (§1) Mouse mammary carcinoma cells (c127i) transfected with human epithelial CFTR wild type (WT1) or Δ508 CFTR cells [Cannello et al., (1994), J. Biol. Chem. 269, 11224-11232; Dechecchi et al., (1993) J. Biol. Chem. 268, 11321-11325] were used for these studies. The transfected c127i cells are high level producers of Δ508 CFTR mRNA. Cells were grown and maintained in Dulbecco's medium (DMEM), supplemented with 10% fetal bovine serum and 1% L-glutamine, as previously reported [Verkman, (1990) Am. J. Physiol. 259, C375-C388].
Whole-cell and excised inside-out patches were obtained to assess cAMP-PKA dependent anion currents in treated Δ508 cells. Currents and command voltages were obtained and driven. respectively, with a Dagan 3900 amplifier using a 1 gigaohm headstage. The excised patch-clamp configuration was carried out as previously described [Reisin et al., (1994) J. Biol. Chem. 269, 20584-20591]. Single channel data were obtained between ±100 mV in symmetrical Cl^−. Data were further analyzed as previously described [Reisin et al., (1994) J. Biol. Chem. 269, 20584-20591]. The pipette and bathing solution contained, in mmol/L, either: NaCl 140, MgCl2 1.0, KCl 5, and N-2-hydroxyethylpiperazine N′-2-ethanesulfonic acid (HEPES) 10, at pH 7.4, or MgCl2 70, HEPES 10, pH 7.4. The bathing solution also contained 1.0 mmol/L CaCl2. […]

In the next data set the test system is Δ508 cells. The data set is described as follows: SPQ fluorescence assay of cAMP-stimulated Cl- transport. The format is cell-based, mouse. To be noted: CF4/CF6 treated Δ508 cells compared with WT1 cells; control Δ508 cells no change. Here is the method:
as §1
Cyclic-AMP-stimulated CY transport was also followed by fluorescence changes of cells loaded with the CY sensitive dye 6-methoxy-N-(3-sulfopropyl)quinolinium (SPQ) [Verkman, (1990) Am. J. Physiol. 259, C375-C388]. Briefly, cells were grown to partial confluence on glass coverslips. […] SPQ fluorescence was determined under an oil immersion X20 objective in a Nikon E-800 fluorescence microscope (Tokyo, Japan), with an UV filter (96101C UV-2E/C). […] Pictures were analyzed digitally with the NIH Image 1.62b7 software. SPQ cytoplasmic fluorescence values were normalized between intra-nuclear (considered as zero quenching, i.e. low Cl^−), and extracellular background. Data were expressed as percent fluorescence with respect to time zero, the time when cells were placed in an isotonic saline solution. […]

Data set [2] deals with Δ508CFTR expressing cells. The data set is described as follows: Whole-cell patch clamp, cAMP-activated whole cell currents. In kind it is cell-based, mouse. As for the experimental part: as §1
Whole-cell and excised inside-out patches were obtained to assess cAMP-PKA dependent anion currents in treated Δ508 cells. Currents and command voltages were obtained and driven. respectively, with a Dagan 3900 amplifier using a 1 gigaohm headstage. The excised patch-clamp configuration was carried out as previously described [Reisin et al., (1994) J. Biol. Chem. 269, 20584-20591]. Single channel data were obtained between ±100 mV in symmetrical Cl^−. Data were further analyzed as previously described [Reisin et al., (1994) J. Biol. Chem. 269, 20584-20591]. The pipette and bathing solution contained, in mmol/L, either: NaCl 140, MgCl2 1.0, KCl 5, and N-2-hydroxyethylpiperazine N′-2-ethanesulfonic acid (HEPES) 10, at pH 7.4, or MgCl2 70, HEPES 10, pH 7.4. The bathing solution also contained 1.0 mmol/L CaCl2. Whenever indicated, the patch-pipette was filled up to at least one third of its height with either MgATP or TrisATP (100 mmol/L, pH 7.4 adjusted with N-methyl-glucamine) as previously reported [Reisin et al., (1994) J. Biol. Chem. 269, 20584-20591]. Experiments were conducted at room temperature. The cAMP stimulatory mixture contained 8-Br-cAMP, isobutyl-methyl-xanthine (IBMX) and forskolin. Final concentrations were 500 μmol/L, […], and 10 μmol/L, respectively. The catalytic subunit of PKA was used at a final concentration of 20 μg/ml. The Cl^− channel blocker, diphenylamine-2-carboxylate (DPC) was kept in a 100-fold stock solution (20 mmol/L) in 50% water/ethanol. DPC was used at a final concentration of 500 μM.
To restore the normal (wild type) phenotype in cells expressing Δ508CFTR, modified oligonucleotides were constructed and their effect on ion transport was assessed in Δ508 cells treated with these constructs. In a first step, a modified oligodeoxyribonucleotide was synthesized, containing phosphorothioate (PS) and PS plus 2′-O-methyl modifications for the central and flanking segments, respectively. This oligonucleotide was designed to hybridize in Watson-Crick base complementarity to the region of Δ508 mRNA where the PS section would be directly opposite the Δ508 mRNA position, flanked 3′- and 5′- by adjacent nucleotides complementary to the Δ508 mRNA. Accordingly, the PS segment would activate endogenous RNase H, and cleave those bases opposite the PS complementary oligonucleotide (10 μM). The insertion of bases then occurs in a second step.
For the second or insertion step, two complementary single strand oligonucleotides, CF4 and CF6 (Table 1, Scheme 1A) were constructed. The annealed CF4/CF6 duplex (10 μM final concentration) was added to the Δ508 CFTR cells after 2 hours incubation, then washout, in the deletion step. Next, following overnight or up to 72 hour incubation in the second (insertion) step, patch clamp examination was conducted on the treated cells.
A general note: In patch-clamp work, channel activity is measured electrically.

A further data set relates to CFTR protein. Kind of data set: Western blot with antibodies to epitopes upstream and downstream of the Δ508 deletion. The format is cell-based, human. To be noted: both antibodies same level of protein, no truncated or degraded peptides. As for the experimental part:
(§2) Without being limited by any particular mechanism, the hypothesis was tested as to whether base insertion in the treated Δ508 cells has occurred at the RNA level. It was possible that the repair mechanism was carried out instead of/or in addition to, the DNA level, by way of reverse transcription extending back to the genome. This was tested by RT-PCR analysis of DNA from subcloned Δ508 cells originally treated with CF4/CF6. No evidence was obtained that the restored phenotype was carried back to the inheritable DNA genome level was obtained. Western blot analysis was conducted with antibodies targeted to epitopes upstream and downstream of the Δ508 deletion, respectively.

A further data set concerns Δ508 CFTR mRNA. Kind of data set: RT-PCR, subcloning and sequencing of CFTR mRNA. The format is cell-based, human. To be noted: mRNA from CF4/CF6 treated Δ508 cells (10 μM), subcloned RT-PCR products. Here is the method: Total RNA isolated by Trizol® reagent according to the manufacturer's protocol (Invitrogen, CA) from either WT1 or Δ508 cells treated with or without CF6/CF4 annealed duplex oligonucleotides (final concentration of duplex in reaction mixture 10 μM) was used to perform the RT-PCR assay [Kleppe et al., (1971) J. Mol. Biol. 56, 341-361] in two steps by using a ThermoScript RT-PCR system (GIBCO, BRL). Several sets of primers were used (see CF Table 1). In the first step, total RNA (˜2 μg) was incubated for […] at 55° C. with amplification refractory mutation system (ARMS) [Ferric et al., (1992) Am. J. Hum. Genet. 51, 251-262] reverse mutant (M1) and normal (N1) primers (0.5 μg each) separately for the first-strand synthesis. In a second step, after heating at 94° C. for 5 mM, 35 cycles of PCR were carried out on the samples. PCR cycles were performed first by denaturation at 94° C. for 2 mM, annealing at 62° C. for 1 min, and extension at 72° C. for 2 min, followed by a final extension for 10 mM at 72° C. Two ARMS reverse primers (N1 and M1) [Ferric et al., (1992) Am. J. Hum. Genet. 51, 251-262], and a forward (F1) primer were used (Table 1). Similarly RT-PCR was performed with ARMS PS reverse primer (SCFR) and PS forward primer (SNF1, Table 1). RT-PCR products were separated in 3% agarose gel and subjected to automated DNA sequence analysis. […]

For another data set, the system named is DNA genome of Δ508 cells. Kind of data set: RT-PCR analysis of DNA from subcloned treated Δ508 cells. To be noted: subcloned Δ508 cells originally treated with CF4/CF6. In kind it is cell-based. As for the experimental part:
as §2

The mark [3] stands for this setting: two step treated Δ508 cells, n=24.

With `O=C(O)c1ccccc1Nc1ccccc1` [DPC, diphenylamine-2-carboxylate], in the data set on CFTR (CF4/CF6 treated Δ508 cells, FIG. 1), the “effect on cAMP-activated currents” value is recorded as “inhibited”. Further, the “inhibition of cAMP-activated currents” value in the data set with CFTR (two step treated Δ508 cells) is recorded as greater than 84%.

With “CF4/CF6: 2′-O-methyl RNA/unmodified RNA oligonucleotide duplex of CF4 (SEQ ID NO: 1) and CF6 (SEQ ID NO: 2) (chain 1 mAmUmCmAmUmAmGmGmAmAmAmCmAmCmCmAmAmAmGmAmUmGmAmUmAmUmUmUmUmCmUmUmU; chain 2 {P}-rCrArUrCrUrUrUrGrGrUrG-{P}; listed as Homo sapiens)”, the “single channel conductance of PKA-activated Cl- channels” value in data set [1] (excised inside-out patches) was 10-12 pS and 12 pS. For the same molecule, the “treated cells displaying PKA and ATP activated Cl- channels” value in data set [1] (control Δ508 cells 0/24) was 10/12. For the same molecule, the “change in SPQ fluorescence in response to cAMP stimulation” value with Δ508 cells is recorded as “comparably similar change in SPQ fluorescence”. In addition, in data set [2] (CF4/CF6 duplex added to Δ508 cells in tissue culture, patch clamping and SPQ quenching), the “time to restoration of CFTR channel function” value is 8 to 18 h. Further, the “whole-cell currents in the absence of cAMP stimulation” value in data set [2] (CF4/CF6 treated cells, data not shown) is “sporadically showed large, DPC inhibitable whole-cell currents”. Besides, in data set [2] (CF4/CF6 treated Δ508 cells, FIG. 1, untreated Δ508 cells lacked it), the “cAMP-activated whole cell conductance” value is listed as “robust cAMP response”. Also, the “persistence of restored CFTR function” value in data set [2] (after cell replication and washing out of the oligonucleotide after a few days incubation) is reported as “restoration of CFTR function was lost”. In data set [2] (one step: CF4/CF6 duplex added without first oligonucleotide treatment step), the “phenotypic reversion by patch clamp” value was “phenotypic reversion was likewise found”. The “increase of whole cell currents after cAMP stimulation” value in data set [2] (two step treated Δ508 cells (PS oligonucleotide 10 μM 2 h, washout, then CF4/CF6 10 μM overnight to 72 h), n=24, p<0.01) is given as 243%. Besides, in data set [2] (setting [3]), the “whole cell conductance after cAMP stimulation” value was 2.98±0.68 nS/Cell and the “whole cell conductance before cAMP stimulation” value came to 0.87±0.16 nS/Cell. The “CFTR protein made in the presence of the oligonucleotides” value in the data set with CFTR protein is given as “full-length protein was made; also recorded: does not act as an inhibitor of protein synthesis”. The “UGU insertion in Δ508 mRNA (percentage of subclones showing TGT insertion)” value in the data set with Δ508 CFTR mRNA is 20-30%. In addition, in the data set with DNA genome of Δ508 cells, the “restored phenotype carried back to the inheritable DNA genome level” value was “No evidence”.

The values above are taken from US8841271B2, “Oligonucleotide complex compositions and methods of use as gene alteration tools” (The General Hospital Corporation, priority 2004, dated 2014).
